Assay results taken from ChEMBL document CHEMBL3639303, “Organic compounds” (2013).
pIC50: −log10 of the molar value.

These compounds were tested against T1, Renin (Homo sapiens, UniProt P00797) (assay: FRET Assay: Inhibition activity of renin using FRET assay.).
T1 sequence (P00797 whole entry): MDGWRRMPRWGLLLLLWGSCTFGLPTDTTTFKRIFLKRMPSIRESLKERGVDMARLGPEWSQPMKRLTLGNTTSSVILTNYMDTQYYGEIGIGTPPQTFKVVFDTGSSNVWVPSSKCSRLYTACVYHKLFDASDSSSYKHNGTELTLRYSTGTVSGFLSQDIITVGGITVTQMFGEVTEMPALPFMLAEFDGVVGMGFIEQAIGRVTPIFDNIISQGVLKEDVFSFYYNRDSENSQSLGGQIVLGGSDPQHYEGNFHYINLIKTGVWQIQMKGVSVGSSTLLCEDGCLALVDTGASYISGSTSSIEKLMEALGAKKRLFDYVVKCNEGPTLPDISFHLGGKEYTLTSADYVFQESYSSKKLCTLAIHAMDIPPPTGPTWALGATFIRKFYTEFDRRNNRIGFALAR

Compound | pIC50
CCOC[C@@H](CC(C)C)NC(=O)[C@@H]1CNC[C@H](C(=O)N(c2ccc(C(C)(C)OC)cn2)C2CC2)[C@@H]1O | 8.70
CCOC[C@@H](CC(C)C)NC(=O)[C@@H]1CNC[C@H](C(=O)N(c2ccc(C(C)C)cn2)C2CC2)[C@@H]1O | 8.70
CCOC[C@@H](CC(C)C)NC(=O)[C@@H]1CNC[C@H](C(=O)N(c2cc(OC)c(C(C)C)cn2)C2CC2)C1 | 9.05
CCOC[C@@H](NC(=O)[C@@H]1CNC[C@H](C(=O)N(c2cc(OC)c(C(C)C)cn2)C2CC2)C1)C1CCCCC1 | 9.52
CCOC[C@@H](CC(C)C)NC(=O)[C@@H]1CNC[C@H](C(=O)N(c2cc(OCCCOC)c(C(C)C)cn2)C2CC2)[C@@H]1O | 9.40
CCOC[C@H](NC(=O)[C@@H]1CNC[C@H](C(=O)N(c2ccc(C(C)C)cn2)C2CC2)C1)C(C)C | 9.05
CCOC[C@@H](CC(C)C)NC(=O)[C@@H]1CNC[C@H](C(=O)N(c2cc(OCC)c(CC)cn2)C2CC2)C1 | 9.22
CCOC[C@@H](CC(C)C)NC(=O)[C@@H]1CNC[C@H](C(=O)N(CC(C)C)c2cc(OC)c(C(C)C)cn2)C1 | 9.10
